From paper PMC3610419, “A Randomized, Double-Blind Placebo Controlled Trial of Balapiravir, a Polymerase Inhibitor, in Adult Dengue Patients” (The Journal of Infectious Diseases, 2012)
Like-named read-outs stand apart in the source and are kept apart here.

How the values were obtained:
[1] = test system: DENV reference strains and clinical isolates; assay: Inhibition of DENV replication in Huh-7 cells, summary over all strains; assay type: cell-based, dengue virus
Experimental: The mean and standard deviation shown represent 3 independent (different date) experiments for each virus tested. Huh-7 cells were plated in 96-well plate at 10,000 cells/well in DMEM containing 10 % FBS in 100 μl volume one day prior to set up of the assay. The following day the medium was aspirated off and diluted virus at a multiplicity of infection of 0.5 or media was added to the assay and control wells, respectively. The virus was allowed to attach to the cells for two hours at 37°C in a humidified 5% C02 atmosphere while the dilutions of the test molecule were prepared. Test molecules (or medium as a control) were added after aspiration of the virus-containing media 2 hours post-infection in 3-fold dilutions at a final DMSO concentration of 1%. After 48 hrs, cells were washed and cellular RNA were isolated. In this study, we used a quantitative real time PCR method to quantitate dengue viral RNA in Huh-7 in the presence of inhibitors. Viral RNA and endogenous 18S rRNA control (Applied Bio System) was quantified by a real time PCR assay using the following primers. […] Taqman was performed in duplicate. […] First ΔCt was calculated by subtracting 18S rRNA CT value from dengue RNA CT value. ΔCts from duplicate taqman assay were averaged. […] Relative quantification was calculated using the following formula. Relative quantification = 2^-averageΔΔCT. […]

DENV-3 = assay: Inhibition of DENV replication in Huh-7 cells, viral RNA by quantitative real time PCR; assay type: cell-based, dengue virus; details: 48 hrs, mean ± SD of 3 experiments
Experimental: (§1) ^a Each experiment was done in duplicate. The mean and standard deviation shown represent 3 independent (different date) experiments for each virus tested. Huh-7 cells were plated in 96-well plate at 10,000 cells/well in DMEM containing 10 % FBS in 100 μl volume one day prior to set up of the assay. The following day the medium was aspirated off and diluted virus at a multiplicity of infection of 0.5 or media was added to the assay and control wells, respectively. The virus was allowed to attach to the cells for two hours at 37°C in a humidified 5% C02 atmosphere while the dilutions of the test molecule were prepared. Test molecules (or medium as a control) were added after aspiration of the virus-containing media 2 hours post-infection in 3-fold dilutions at a final DMSO concentration of 1%. After 48 hrs, cells were washed and cellular RNA were isolated. In this study, we used a quantitative real time PCR method to quantitate dengue viral RNA in Huh-7 in the presence of inhibitors. Viral RNA and endogenous 18S rRNA control (Applied Bio System) was quantified by a real time PCR assay using the following primers. Dengue Reverse (Common to all the serotypes): 5’-[…]-3’, Dengue forward serotype 1: 5’-[…]-3’, Dengue forward serotype 2 or 3: 5’-[…]-3’, Dengue forward serotype 4: 5’-[…] -3’ and Dengue probe (Common to all the serotypes): 5'-/56-FAM/[…]/3BHQ_1/-3'. Taqman was performed in duplicate. IC50 was obtained using the following calculations. First ΔCt was calculated by subtracting 18S rRNA CT value from dengue RNA CT value. ΔCts from duplicate taqman assay were averaged. Then ΔΔCt was obtained by subtracting the average ΔCt of non-treated sample from the treated sample average ΔCt. Relative quantification was calculated using the following formula. Relative quantification = 2^-averageΔΔCT. The 50% inhibitory concentrations (EC50) were calculated using the sigmoidal dose-response model in Microsoft XLfit.

DENV-2 = assay: as above; assay type: cell-based, dengue virus; details: 48 hrs, mean ± SD of 3 experiments
Experimental: as §1

DENV-4 = assay: as above; assay type: cell-based, dengue virus; details: 48 hrs, mean ± SD of 3 experiments
Experimental: as §1

DENV-1 = assay: as above; assay type: cell-based, dengue virus; details: 48 hrs, mean ± SD of 3 experiments
Experimental: as §1

[2] = test system: DENV-1, DENV-2, and DENV-4; assay: Activity against DENV in dendritic cells; assay type: cell-based; details: Dengue virus, Dendritic cell, DENV-1, DENV-2, DENV-4, data not shown, read-out: mean EC50 range
[3] = test system: DENV-1, DENV-2, and DENV-4; assay: Activity against DENV in primary human macrophages; assay type: cell-based; details: Dengue virus, Macrophage, DENV-1, DENV-2, DENV-4, data not shown, read-out: mean EC50 range
[4] = cited from earlier work
clinical = details: human, in vivo
Experimental: Randomization to treatment group was by computer-generated randomization sequencing in blocks of 2. Balapiravir was formulated in a 500-mg film-coated tablet. The placebo consisted of an identical looking tablet containing excipient only. All balapiravir and placebo tablets were provided by F. Hoffmann-La Roche. Patients in cohort 1 (n = 20) received 1500 mg of balapiravir or an identical placebo orally every 12 hours for 5 days (10 doses). The decision to dose escalate (to 3000 mg) was made after review of the partially unblinded group mean clinical and laboratory data acquired from patients in cohort 1. Patients in cohort 2 (n = 44) received 3000 mg of balapiravir or placebo orally twice a day for 5 days (10 doses).
Serum samples for pharmacokinetic investigations were collected at time 0 (predose) and 2, 4, 8, and 12 hours postdose on days 1 and 5. Pharmacokinetics parameters were calculated using noncompartmental methods.

Question: What does the source list for C#C[C@@]1(O)[C@H](O)[C@@H](CO)O[C@H]1n1ccc2c(N)ncnc21 [NITD008, reference compound]?
Answer: IC50 ([1]; Huh-7 cells, range over DENV strains, read-out: Mean values of median inhibitory concentration (IC50)): 100 to 600 nM; IC50 (DENV-3; DENV-3 strain 33/0072 (clinical isolate), Huh-7 cells): 500 ± 200 nM; IC50 (DENV-3; DENV-3 strain 33/0096 (clinical isolate), Huh-7 cells): 300 ± 100 nM; IC50 (DENV-3; DENV-3 strain 33/0177 (clinical isolate), Huh-7 cells): 300 nM; IC50 (DENV-3; DENV-3 strain 33/0253 (clinical isolate), Huh-7 cells): 600 nM; IC50 (DENV-3; DENV-3 strain H87, Huh-7 cells): 400 ± 100 nM; IC50 (DENV-2; DENV-2 strain 32/0102 (clinical isolate), Huh-7 cells): 500 ± 200 nM; IC50 (DENV-2; DENV-2 strain 32/0140 (clinical isolate), Huh-7 cells): 300 nM; IC50 (DENV-2; DENV-2 strain 33/0051 (clinical isolate), Huh-7 cells): 400 ± 200 nM; IC50 (DENV-2; DENV-2 strain 33/0178 (clinical isolate), Huh-7 cells): 300 ± 200 nM; IC50 (DENV-2; DENV-2 strain Th36, Huh-7 cells): 500 ± 100 nM; IC50 (DENV-4; DENV-4 strain H241, Huh-7 cells): 600 ± 100 nM; IC50 (DENV-4; DENV-4 strain Phili/1567, Huh-7 cells): 100 ± 100 nM; IC50 (DENV-4; DENV-4 strain Senga/DA, Huh-7 cells): 300 ± 100 nM; IC50 (DENV-4; DENV-4 strain Venz/JQ, Huh-7 cells): 200 ± 100 nM; IC50 (DENV-1; DENV-1 strain FR28 (clinical isolate)): 500 ± 100 nM; IC50 (DENV-1; DENV-1 strain FR34 (clinical isolate)): 500 ± 200 nM; IC50 (DENV-1; DENV-1 strain FR37 (clinical isolate)): 400 ± 100 nM; IC50 (DENV-1; DENV-1 strain FR42 (clinical isolate)): 500 ± 200 nM; IC50 (DENV-1; DENV-1 strain Thsman): 400 ± 100 nM

Question: With [N-]=[N+]=N[C@]1(CO)O[C@@H](n2ccc(N)nc2=O)[C@H](O)[C@@H]1O [R1479, 4′-azidocytidine] as the molecule, how does the EC50 [2] read?
Answer: 5200 to 6000 nM

Question: What about the EC50 [3] of the same molecule?
Answer: 1300 to 3200 nM

Question: And the EC50 ([1]; Dengue virus, Huh-7, read-out: mean half maximal effective concentration (EC50) values)?
Answer: 1900 to 11000 nM

Question: What about the “Cmax above the HCV replicon EC50” value ([4]; 500 mg balapiravir twice daily) of the same molecule?
Answer: > 5 fold

Question: What about the “mean plasma trough level above the human serum adjusted HCV replicon EC50” value ([4]; 1500 mg balapiravir twice daily) of the same molecule?
Answer: 3.5 fold

Question: What about the “ratio of mean plasma trough level to human serum adjusted HCV replicon EC50” value ([4]; 3000 mg balapiravir twice daily) of the same molecule?
Answer: 4.9

Question: What about the “ratio of mean plasma trough level to human serum adjusted HCV replicon EC50” value ([4]; 4500 mg balapiravir twice daily) of the same molecule?
Answer: 7.8

Question: And the Cmax (clinical)?
Answer: 25 to 145 µM

Question: What about the “mean Cmin concentrations that may need to be exceeded for antiviral effects on DENV” value (clinical) of the same molecule?
Answer: 6.7 to 39 µM

Question: What about the Cmax (clinical; 1500 mg, Cmax) of the same molecule?
Answer: 16.5 µM

Question: And the Cmax (clinical; 1500 mg, plasma Cmax of R1479)?
Answer: > 6 µM

Question: And the Cmax (clinical; 3000 mg, Cmax)?
Answer: 23.9 µM
